Assay results as given in publication PMC12466479, “The Supersulfide-Producing Activity of Rat Cystathionine γ-Lyase Is Irreversibly Inactivated by L-CysNO but Not by L-GSNO” (Antioxidants, 2025).
One block for each compound: values may come before it.

What was measured:
[1] = molecular target: T1, Cystathionine γ-lyase (CSE) (Rattus norvegicus, UniProt P18757); design: gene Cth
[2] = molecular target: T1, Cystathionine γ-lyase (CSE); assay: SSP4 fluorescence assay of Cys-SSH production from cystine after preincubation with L-CysNO; also a substrate (HSNO by TAP-1, pyruvate assay); type: biochemical; design: gene Cth; recombinant rat CSE expressed in E. coli as GST-CSE, GST tag cleaved
[3] = molecular target: T1, Cystathionine γ-lyase (CSE); assay: TAP-1 assay of HSNO production from L-CysNO with or without […] PLP; type: biochemical; design: gene Cth; recombinant rat CSE, purified from E. coli
[4] = molecular target: T1, Cystathionine γ-lyase (CSE); design: gene Cth; remark: listed apart in the source

T1 sequence (P18757 whole entry): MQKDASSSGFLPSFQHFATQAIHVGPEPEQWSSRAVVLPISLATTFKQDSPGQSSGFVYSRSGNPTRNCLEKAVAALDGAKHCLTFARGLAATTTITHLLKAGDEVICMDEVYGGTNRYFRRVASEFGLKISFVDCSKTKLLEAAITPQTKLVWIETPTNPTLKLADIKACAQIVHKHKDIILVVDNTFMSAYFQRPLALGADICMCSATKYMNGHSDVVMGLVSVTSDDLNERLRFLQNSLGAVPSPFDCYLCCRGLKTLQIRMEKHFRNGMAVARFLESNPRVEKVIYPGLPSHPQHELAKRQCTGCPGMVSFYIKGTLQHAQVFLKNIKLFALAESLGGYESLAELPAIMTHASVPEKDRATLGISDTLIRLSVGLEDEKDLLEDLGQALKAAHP

Structure (SMILES): N[C@@H](CSSC[C@H](N)C(=O)O)C(=O)O [cystine]
SSP4 fluorescence assay of Cys-SSH formed from 1 mM cystine (β-lyase activity) [1]: The Cys-SSH produced by CSE with cystine as the substrate was measured by using SSP4

IC50 [2]: 10 µM
Structure (SMILES): N[C@@H](CSN=O)C(=O)O [L-CysNO, L-S-nitrosocysteine]

Structure (SMILES): Cc1ncc(COP(=O)(O)O)c(C=O)c1O [PLP, pyridoxal 5′-phosphate]
TAP-1 assay of HSNO production from L-CysNO with or without 50 μM PLP [3]: The PLP-dependent β-lyase activity of CSE toward L-CysNO—but not D-CysNO—in producing HSNO was evident

Structure (SMILES): N[C@@H](CCSC[C@H](N)C(=O)O)C(=O)O [cystathionine]
DTNB assay of cysteine formed from 1 mM cystathionine (γ-lyase activity) [4]: The cysteine produced by CSE from cystathionine was measured by DTNB assay
